≈ marks a conversion by molar mass, not a printed value. Structures can show the parent of a compound that is named as a salt. Values belong to the compound of their own block, whether it stands above or below them.
What was measured:
[1] = Approximate solubility in water; type: physicochemical
Procedure: The limit value of completely dissolved amount was determined. Determination of solubilities below 20 mg/l occurred with stirring suspensions in water, filtering off the excess, and measuring of the amount of substance in the filtrate.

[2] = Storage stability of the crystalline salt (HPLC area, Raman, appearance); type: physicochemical; settings: for Storage stability (general statement): crystalline forms disclosed; for HPLC area reference value: reference value against which the HPLC area after 1 week at 60° C./75% r.h. is compared
Procedure: FT-Raman Spectroscopy: Bruker RFS100. Nd:YAG 1064 nm excitation, 100 mW laser power, Ge-detector, 64 scans, range 25-3500 cm^−1, […].
HPLC: HPLC measurement were carried out with a HP LC1090M, Column Symmetry C18, 3.0·150 mm.

[3] = approximate, double distilled water added stepwise to 5 mg substance, sonification
[4] = stored 1 week at 60° C. and about 75% r.h. in an open container
[5] = storage for 1 week at 100° C. in a closed ampoule
[6] = stored 1 week at 60° C. and about 75% r.h. in a closed container

SMILES: CC(C)COc1ccc(CNC(=O)N(Cc2ccc(F)cc2)C2CCN(C)CC2)cc1 [Example 2, N-(4-fluorobenzyl)-N-(1-methylpiperidin-4-yl)-N′-(4-(2-methylpropyloxy)phenylmethyl)carbamide citrate]
- Solubility in aqueous systems (general statement) ([1]; aqueous systems): very soluble
- solubility at 2 min ([1]; thermodynamic from solid, approximate, double distilled water added stepwise to 5 mg substance, sonification): ~14 mg/mL
- Storage stability (general statement) [2]: good storage stability
- HPLC area reference value [2]: 99.9%
- HPLC area after storage [2, 4]: 99.4%
- State of crystalline powder after storage [2, 4]: substantially unchanged

SMILES: CC(C)COc1ccc(CNC(=O)N(Cc2ccc(F)cc2)C2CCN(C)CC2)cc1.O=C(O)/C=C/C(=O)O [Example 3, N-(4-fluorobenzyl)-N-(1-methylpiperidin-4-yl)-N′-(4-(2-methylpropyloxy)phenylmethyl)carbamide fumarate]
- Solubility in water [1, 3]: > 500 mg/mL
- HPLC area reference value [2]: 99.4%
- Changes on storage detected with Raman spectroscopy ([2]; storage at 75% r.h. in an open container): changes of the substance after 3 days
- HPLC area after storage [2, 4]: 96.7%
- State of crystalline powder after storage [2, 4]: substantially unchanged

SMILES: CC(C)COc1ccc(CNC(=O)N(Cc2ccc(F)cc2)C2CCN(C)CC2)cc1 [Example 4, N-(4-fluorobenzyl)-N-(1-methylpiperidin-4-yl)-N′-(4-(2-methylpropyloxy)phenylmethyl)carbamide maleate]
- Solubility in water [1, 3]: > 500 mg/mL

The remaining lines, values ahead:

- Solubility in water [1, 3]: > 250 mg/mL
SMILES: CC(C)COc1ccc(CNC(=O)N(Cc2ccc(F)cc2)C2CCN(C)CC2)cc1 [Example 6, N-(4-fluorobenzyl)-N-(1-methylpiperidin-4-yl)-N′-(4-(2-methylpropyloxy)phenylmethyl)carbamide phosphate]

- Solubility in water [1, 3]: > 500 mg/mL
SMILES: CC(C)COc1ccc(CNC(=O)N(Cc2ccc(F)cc2)C2CCN(C)CC2)cc1 [Example 7, N-(4-fluorobenzyl)-N-(1-methylpiperidin-4-yl)-N′-(4-(2-methylpropyloxy)phenylmethyl)carbamide succinate]

- Solubility in water [1, 3]: > 500 mg/mL
SMILES: CC(C)COc1ccc(CNC(=O)N(Cc2ccc(F)cc2)C2CCN(C)CC2)cc1 [Example 5, N-(4-fluorobenzyl)-N-(1-methylpiperidin-4-yl)-N′-(4-(2-methylpropyloxy)phenylmethyl)carbamide malate]

- Solubility in water [1, 3]: 4 mg/mL (≈ 9.36 mM)
- Storage stability (general statement) [2]: good storage stability
- HPLC area reference value [2]: 96.8%
- HPLC area after storage [2, 5]: 97.4%
- State of crystalline product after storage [2, 5]: does not decompose
- HPLC area after storage [2, 6]: 97.4%
- State of crystalline powder after storage [2, 6]: remains a white powder
SMILES: CC(C)COc1ccc(CNC(=O)N(Cc2ccc(F)cc2)C2CCN(C)CC2)cc1 [Example 9, N-(4-fluorobenzyl)-N-(1-methylpiperidin-4-yl)-N′-(4-(2-methylpropyloxy)phenylmethyl)carbamide edisylate]

— patent US7868176B2, “Salts of N-(4-fluorobenzyl)-N-(1-methylpiperidin-4-y1)-N′-(4-(2-methylpropyloxy)phenylmethyl)carbamide and their preparation” (ACADIA Pharmaceuticals, Inc., priority 2004, dated 2011)
